Here are results for 20 compounds from patent publication US7112680B2, “Heterocyclic hydrazones for use as anti-cancer agents” (Austria Wirtschaftsservice Gesellschaft MIT Beschrankter …, priority 2000, dated 2006).

Where two headings read alike, the source gives them in different places.

For assay [1], the system named is HT-29 (colon adenocarcinoma). As to the kind of experiment: Inhibition of tumor cell growth, SRB-assay, HT-29. The format is cell-based, human. The conditions noted are these: read-out: IC50 HT-29 (converted). As to the method:
(§1) The KB cell lines were grown in Dulbecco's modified Eagle's medium (4,5 g glucose/l). To the cultures of KB-C1 cells 1 μg of colchicine/ml, and to the hydroxyurea-resistant KB-HU cells 1 mM hydroxyurea was added every other week. […] 3,000 - 10,000 cells in 200 μl medium were seeded per well into 96-well plates. […] Approximately 10,000 cells per 100 μl were seeded in 96-well plates. […] The substances were dissolved in dimethylsulfoxide (DMSO). […] Subsequently, the samples were fixed, washed, and the absorption was determined by a microplate reader.

In assay [2] the test system is HeLa (epitheloid cervix carcinoma). As to the kind of experiment: Inhibition of tumor cell growth, SRB-assay, HeLa. The format is cell-based, human. The conditions noted are these: read-out: IC50 HeLa (converted).
Assay [3] deals with Burkitt's lymphoma (CA 46, ATCC No. CRL 1648). The assay is described as follows: Inhibition of tumor cell growth, MTT-assay, Burkitt's lymphoma. Format: cell-based, human. Particulars: read-out: IC50 Burkitts. The protocol:
as §1

Assay [4] relates to K562 (chronic myelogenous leukemia). As to the kind of experiment: Inhibition of tumor cell growth, K562. Format: cell-based, human. Particulars: 72 hours. The protocol: In order to obtain information about the growth-inhibiting action on tumor cells, the inhibition of the growth of the following human tumor cells was determined: Burkitt's lymphoma (CA 46, ATCC No. CRL 1648), CCRF-CEM (acute lymphoblastic leukemia, ATCC No. CCL 119), K562 (chronic myelogenous leukemia, ATTC No. CCL 243), HeLa (epitheloid cervix carcinoma, ATCC No. CCL 2), MEXF 276L (melanoma), HT-29 (colon adenocarcinoma, ATCC No. HTB 38), KB-3-1 (human oral epidermoid carcinoma, CTCC No. CCL 17), KB-HU hydroxyurea-resistant, multidrug-resistant KB-C1 cells (Akiyama et al, Cell. Mol Genet., 11:117–126, 1985). Burkitt's, CCRF-CEM, HeLa and MEXF 276L cells were grown in RPMI 1640, HT-29 cells in McCoy's 5A medium. The KB cell lines were grown in Dulbecco's modified Eagle's medium (4,5 g glucose/l). To the cultures of KB-C1 cells 1 μg of colchicine/ml, and to the hydroxyurea-resistant KB-HU cells 1 mM hydroxyurea was added every other week. The media were supplemented with 10% fetal calf serum (except Burkitt's lymphoma cells with 15%), 2 mM glutamine, 50 units/ml penicillin and 50 μg/ml streptomycin. Inhibition of growth of HeLa, HT-29, KB and MEXF 276L cells was detected by the SRB-assay (Skehan et al, J. Natl Cancer Inst., 82:1107–1112, 1990). 3,000 - 10,000 cells in 200 μl medium were seeded per well into 96-well plates. Dose-response curves for CCRF-CEM and Burkitt's lymphoma cells were effected by an MTT-assay (Mosman, J. Immunol Methods, 65:55–63, 1983) from Boehringer Mannheim, Mannheim, Germany. Approximately 10,000 cells per 100 μl were seeded in 96-well plates. After an initial incubation of four hours, various substance concentrations were added, and the cells were incubated at 37° C. in a water-saturated atmosphere of 95% air and 5% CO2 for 72 hours. The substances were dissolved in dimethylsulfoxide (DMSO). The concentration of DMSO was 0.5%, and this was not toxic to the cells. Subsequently, the samples were fixed, washed, and the absorption was determined by a microplate reader.

The subject of assay [5] is human tumor grafts (cell lines of FIG. 1). As to the kind of experiment: Colony forming assay (two-layer soft agar). The format is cell-based. Particulars: for tumor type selectivity: colony forming assay, IC70 pattern, FIG. 1; for IC50 / IC90 / Mean IC70: mean values of all cell lines tested in FIG. 1, continuous exposure 3 to 6 days. The protocol: An excellent correlation of drug response in patients and the colony forming assay has been found (Scholz et al, Eur. J. Cancer 25:901–905, 1990). Solid human tumors were grown as grafts in nude mice, removed from the latter, mechanically comminuted and subsequently incubated in an enzyme cocktail consisting of collagenase (1.2–1.8 U/ml), DNAse (375 U/ml) and hyaluronidase (29 U/ml) in RPMI 1640 medium at 37° C. for 30 minutes. The cell mixture was passed through sieves of 200 μm and 50 μm mesh size and washed thereafter twice with PBS (phosphate buffered saline). The percentage of live cells was determined using a Neubauer counting chamber and trypan blue staining.
The colony forming assay was performed according to a two-layer agar technique introduced and modified by Hamburger and Salmon (Hamburger and Salmon, Science, 197:461–463, 1977). The bottom layer consisted of 0.2 ml of Iscoves's Modified Dulbecco's medium with 20% fetal calf serum and 0.75% agar. 8×10^3 to 1.6×10^4 cells were added to the same medium and 0.4% agar and plated in 24-multiwell plates onto the base layer. One day after the plating (with continuous exposure), the substances were added in 0.2 ml medium. Each plate included six controls containing the solvent only, and the treated groups contained 6 concentrations of the substances, each in triplicate. Cultures were incubated at 37° C. and 7% CO2 in a water-saturated atmosphere for 3 to 6 days, depending on the doubling time of the tumor cells. At the time of maximum colony formation with a size of […], counts were performed with an automatic image analysis system. 24 h prior to counting, live colonies were stained with a sterile aqueous solution of 2-(4-iodophenyl)-3-(4-nitrophenyl)-5-phenyltetrazolium chloride (1 mg/ml, 100 μl/well). The results of the tests are given in FIG. 1, and in the following Table 5, respectively. […] Columns pointing towards the right show a slighter than average activity.

For another assay, the system named is MEXF 276L (melanoma). The assay is described as follows: Inhibition of tumor cell growth, SRB-assay, MEXF 276L. The format is cell-based, human. The conditions noted are these: Table 2, 72 hours. The protocol:
as §1

Assay [6] has as its system CCRF-CEM (acute lymphoblastic leukemia). As to the kind of experiment: Inhibition of tumor cell growth, MTT-assay, CCRF-CEM. The format is cell-based, human. The conditions noted are these: Table 2, 72 hours.

With `CCC(=NNc1nc2ccccc2n1C)c1ccccn1` [Ia-8], the IC50 in assay [1] (Table 1, 72 hours) was 11000 nM; in assay [2] (Table 1, 72 hours), 20 nM; in assay [3] (Table 1, 72 hours) it was 1010 nM; in assay [4] (Table 1) it was 90 nM.
Take `CC(C)C(=NNc1nc2ccccc2n1C)c1ccccn1` [Ia-16]: the concentration for half-maximal inhibition (IC50) in assay [1] (Table 1, 72 hours) was 5580 nM; in assay [2] (Table 1, 72 hours), 6 nM; in assay [4] (Table 1), 50 nM; in assay [5] it was 188 nM. Also, in assay [5], the tumor type selectivity result was “selectivity for colon, breast, ovarian, and uterus tumors”. Moreover, in assay [5], the 90% effect level (IC90) was put at 3770 nM. Also, in assay [5], the “Mean IC70” value amounted to 521 nM.
For `Cn1c(NN=C(c2ccccn2)C2CC2)nc2ccccc21` [Ia-24, E/Z-Cyclopropyl-(2-pyridyl)-methanone-(1-methyl-1H-benzo[d]imidazol-2-yl)-hydrazone], the IC50 in assay [1] (Table 1, 72 hours) is 2880 nM. In assay [2] (Table 1, 72 hours), the 50% inhibitory concentration (IC50) is 2 nM. Inhibition in assay [4] (Table 1) was half-maximal at 40 nM (IC50). In assay [5], the tumor type selectivity entry was “selectivity for colon, breast, ovarian, and uterus tumors”; the IC50 worked out at 138 nM; the 90% effect level (IC90) was put at 3140 nM; the “Mean IC70” value is 387 nM.
For `Cn1c(NN=C(c2ccccn2)c2ccccn2)nc2ccccc21` [Ia-37], the IC50 in assay [1] (Table 1, 72 hours) was 4640 nM; in assay [2] (Table 1, 72 hours), 90 nM; in assay [4] (Table 1), 30 nM.
Consider `CC(=NNc1nc2ccccc2o1)c1ccc(C)nn1` [Ib-5], for which the IC50 in the assay with MEXF 276L (melanoma) (read-out: IC50 MEXF276L) was 2250 nM; in assay [1] (Table 2, 72 hours) it was 1040 nM; in assay [2] (Table 2, 72 hours) it was 1610 nM; in assay [6], 460 nM; in assay [3] (Table 2, 72 hours) it was 840 nM.
Turning to `CC(=NNc1nc2ccccc2[nH]1)c1ncccn1` [Ib-25], the 50% inhibitory concentration (IC50) in the assay on MEXF 276L (melanoma) (read-out: IC50 MEXF276L) is 960 nM; in assay [1] (Table 2, 72 hours), 420 nM; in assay [2] (Table 2, 72 hours), 630 nM; in assay [6] it was 200 nM; in assay [3] (Table 2, 72 hours), 220 nM.
`CCCn1c(NN=C(C)c2ccccn2)nc2ccccc21` [Ic-2]: the half-inhibitory concentration (IC50) in assay [1] (Table 3, 72 hours) was 35100 nM; in assay [2] (Table 3, 72 hours), 210 nM; in assay [3] (Table 3, 72 hours), 1280 nM; in assay [4] (Table 3), 120 nM.
Consider `CC(=NNc1nc2ccccc2[nH]1)c1ccc(C)nn1` [Ib-4], for which the IC50 in the assay on MEXF 276L (melanoma) (read-out: IC50 MEXF276L) is 2360 nM; in assay [1] (Table 2, 72 hours), 1960 nM; in assay [2] (Table 2, 72 hours) it was 1990 nM; in assay [6], 1300 nM; in assay [3] (Table 2, 72 hours), 1870 nM.
As to `CC(=NNc1nc2ccccc2o1)c1cnc(C)cn1` [Ib-17], the IC50 in the assay on MEXF 276L (melanoma) (read-out: IC50 MEXF276L) was 1660 nM; in assay [1] (Table 2, 72 hours), 280 nM; in assay [2] (Table 2, 72 hours), 370 nM; in assay [6], 620 nM; in assay [3] (Table 2, 72 hours) it was 150 nM.
Consider `CC(=NNc1nc2ccccc2n1Cc1ccccc1)c1ccccn1` [Ic-8], for which the IC50 in assay [1] (Table 3, 72 hours) is 160 nM; in assay [2] (Table 3, 72 hours), 130 nM; in assay [3] (Table 3, 72 hours) it was 3580 nM; in assay [4] (Table 3), 450 nM.
With `CC(=NNc1nc2ccccc2o1)c1nccc2ccccc12` [Ib-21], the IC50 in the assay on MEXF 276L (melanoma) (read-out: IC50 MEXF276L) was 1560 nM; in assay [1] (Table 2, 72 hours) it was 1930 nM; in assay [2] (Table 2, 72 hours), 340 nM; in assay [6], 350 nM; in assay [3] (Table 2, 72 hours), 200 nM.
`CCn1c(NN=C(C)c2ccccn2)nc2ccccc21` [Ic-1, 1-(2-Pyridyl)-1-ethanone-1-(1-ethyl-1H-benzo[d]imidazol-2-yl)hydrazone]: the concentration for half-maximal inhibition (IC50) in assay [1] (Homo sapiens, HT-29, Table 3, 72 hours) was 11900 nM; in assay [2] (Homo sapiens, HeLa, Table 3, 72 hours) it was 190 nM; in assay [3] (Homo sapiens, CA46, Table 3, 72 hours), 680 nM; in assay [4] (Homo sapiens, K562, Table 3), 60 nM.
With `Cn1c(NN=C(Cc2ccccc2)c2ccccn2)nc2ccccc21` [Ia-33], the IC50 was 14100 nM in assay [1] (Table 1, 72 hours); 24 nM in assay [2] (Table 1, 72 hours); 120 nM in assay [4] (Table 1).
As for `CC(=NNc1nc2ccccc2o1)c1ncccn1` [Ib-27], the IC50 with MEXF 276L (melanoma) (read-out: IC50 MEXF276L) is 700 nM; in assay [1] (Table 2, 72 hours) it was 270 nM; in assay [2] (Table 2, 72 hours) it was 180 nM; in assay [6], 130 nM; in assay [3] (Table 2, 72 hours), 30 nM.
As for `CC(=NNc1nc2ccccc2n1C1CC1)c1ccccn1` [Ic-6], the IC50 in assay [1] (Table 3, 72 hours) is 11200 nM; in assay [2] (Table 3, 72 hours), 400 nM; in assay [4] (Table 3) it was 90 nM.
With `CC(=NNc1nc2ccccc2[nH]1)c1ccncn1` [Ib-6, 1-(4-Pyrimidinyl)-1-ethanone-1-(1H-benzo[d]imidazol-2-yl)-hydrazone], the IC50 in the assay with MEXF 276L (melanoma) (Homo sapiens, MEXF276L) was 910 nM; in assay [1] (Homo sapiens, HT-29, Table 2, 72 hours), 570 nM; in assay [2] (Homo sapiens, HeLa, Table 2, 72 hours), 880 nM; in assay [6] (Homo sapiens, CCRF-CEM) it was 410 nM; in assay [3] (Homo sapiens, CA46, Table 2, 72 hours) it was 560 nM.
`CC(=NNc1nc2ccccc2o1)c1cccnn1` [Ib-3]: the IC50 in the assay with MEXF 276L (melanoma) (read-out: IC50 MEXF276L) was 1960 nM; in assay [1] (Table 2, 72 hours), 1770 nM; in assay [2] (Table 2, 72 hours) it was 1250 nM; in assay [6], 720 nM; in assay [3] (Table 2, 72 hours), 1340 nM.
Turning to `CC(=NNc1nc2ccccc2o1)c1nccnc1C` [Ib-15], the IC50 is 5380 nM in the assay on MEXF 276L (melanoma) (read-out: IC50 MEXF276L); 2150 nM in assay [1] (Table 2, 72 hours); 1870 nM in assay [2] (Table 2, 72 hours); 1300 nM in assay [6]; 910 nM in assay [3] (Table 2, 72 hours).
Turning to `Cn1c(NN=C(c2ccccc2)c2ccccn2)nc2ccccc21` [Ia-29], the IC50 in assay [1] (Table 1, 72 hours) was 8740 nM; in assay [2] (Table 1, 72 hours), 9 nM; in assay [4] (Table 1) it was 60 nM; in assay [5], 294 nM. For the same compound, the tumor type selectivity entry in assay [5] is “selectivity for colon, breast, ovarian, and uterus tumors”. Further, the IC90 in assay [5] came out at 4660 nM. For the same compound, in assay [5], the “Mean IC70” value is 741 nM.
For the compound `CC(=NNc1nc2ccccc2o1)c1ccncn1` [Ib-8], the IC50 was 1300 nM in the assay on MEXF 276L (melanoma) (read-out: IC50 MEXF276L); 230 nM in assay [1] (Table 2, 72 hours); 410 nM in assay [2] (Table 2, 72 hours); 340 nM in assay [6]; 140 nM in assay [3] (Table 2, 72 hours).
